Experimental data: ChEMBL document CHEMBL4229544, “Design, synthesis and antibacterial properties of pyrimido[4,5-b]indol-8-amine inhibitors of DNA gyrase” (Bioorg Med Chem Lett, 2018)
≈ marks a conversion by molar mass, not a printed value.

Legend:
Enterococcus faecalis [1] = assay: Antibacterial activity against Enterococcus faecalis ATCC 29212; format: functional
Staphylococcus aureus = assay: Antibacterial activity against Staphylococcus aureus ATCC 29213; format: functional
Escherichia coli = assay: Antibacterial activity against Escherichia coli ATCC 25922; format: functional
[2] = test system: Mycolicibacterium smegmatis; assay: Antibacterial activity against Mycobacterium smegmatis ATCC 19420; format: functional
[3] = test system: Mycobacterium tuberculosis; assay: Antibacterial activity against Mycobacterium tuberculosis H37Rv; format: functional
Acinetobacter baumannii = assay: Antibacterial activity against Acinetobacter baumannii NCTC 13420; format: functional
Pseudomonas aeruginosa [4] = assay: Antibacterial activity against Pseudomonas aeruginosa ATCC 27853; format: functional
Haemophilus influenzae [5] = assay: Antibacterial activity against Haemophilus influenzae ATCC 49247; format: functional
Streptococcus pneumoniae [6] = assay: Antibacterial activity against Streptococcus pneumoniae ATCC 49619; format: functional
[7] = test system: Staphylococcus epidermidis; assay: Antibacterial activity against Staphylococcus epidermidis ATCC 12228; format: functional
HepG2 = assay: Cytotoxicity against human HepG2 cells after 24 hrs by CellTiter-Glo assay; format: cell-based; conditions: HepG2, 24 h
[8] = molecular target: T1, DNA gyrase subunit A/DNA gyrase subunit B (Mycobacterium tuberculosis (strain ATCC 25618 / H37Rv), UniProt P9WG45+P9WG47); assay: Inhibition of Mycobacterium tuberculosis DNA gyrase activity; format: protein-complex assay
T1 sequence (P9WG45 whole entry): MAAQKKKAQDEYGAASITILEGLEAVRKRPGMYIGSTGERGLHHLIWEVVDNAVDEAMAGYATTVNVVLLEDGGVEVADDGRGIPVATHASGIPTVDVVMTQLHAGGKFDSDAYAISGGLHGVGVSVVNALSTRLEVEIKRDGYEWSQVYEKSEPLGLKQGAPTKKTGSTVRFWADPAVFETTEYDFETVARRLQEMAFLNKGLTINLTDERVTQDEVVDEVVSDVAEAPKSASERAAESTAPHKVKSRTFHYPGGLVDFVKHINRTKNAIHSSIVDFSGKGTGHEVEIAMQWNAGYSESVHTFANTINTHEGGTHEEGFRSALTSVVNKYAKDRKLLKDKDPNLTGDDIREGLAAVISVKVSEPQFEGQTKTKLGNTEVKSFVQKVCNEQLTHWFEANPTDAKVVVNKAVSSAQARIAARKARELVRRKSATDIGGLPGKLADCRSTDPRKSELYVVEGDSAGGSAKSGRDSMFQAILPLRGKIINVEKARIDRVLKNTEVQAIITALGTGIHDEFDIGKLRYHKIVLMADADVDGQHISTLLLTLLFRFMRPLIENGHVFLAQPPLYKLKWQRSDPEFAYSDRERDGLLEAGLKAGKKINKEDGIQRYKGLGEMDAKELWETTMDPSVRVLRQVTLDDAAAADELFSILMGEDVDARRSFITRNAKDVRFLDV
T1 sequence (P9WG47 whole entry): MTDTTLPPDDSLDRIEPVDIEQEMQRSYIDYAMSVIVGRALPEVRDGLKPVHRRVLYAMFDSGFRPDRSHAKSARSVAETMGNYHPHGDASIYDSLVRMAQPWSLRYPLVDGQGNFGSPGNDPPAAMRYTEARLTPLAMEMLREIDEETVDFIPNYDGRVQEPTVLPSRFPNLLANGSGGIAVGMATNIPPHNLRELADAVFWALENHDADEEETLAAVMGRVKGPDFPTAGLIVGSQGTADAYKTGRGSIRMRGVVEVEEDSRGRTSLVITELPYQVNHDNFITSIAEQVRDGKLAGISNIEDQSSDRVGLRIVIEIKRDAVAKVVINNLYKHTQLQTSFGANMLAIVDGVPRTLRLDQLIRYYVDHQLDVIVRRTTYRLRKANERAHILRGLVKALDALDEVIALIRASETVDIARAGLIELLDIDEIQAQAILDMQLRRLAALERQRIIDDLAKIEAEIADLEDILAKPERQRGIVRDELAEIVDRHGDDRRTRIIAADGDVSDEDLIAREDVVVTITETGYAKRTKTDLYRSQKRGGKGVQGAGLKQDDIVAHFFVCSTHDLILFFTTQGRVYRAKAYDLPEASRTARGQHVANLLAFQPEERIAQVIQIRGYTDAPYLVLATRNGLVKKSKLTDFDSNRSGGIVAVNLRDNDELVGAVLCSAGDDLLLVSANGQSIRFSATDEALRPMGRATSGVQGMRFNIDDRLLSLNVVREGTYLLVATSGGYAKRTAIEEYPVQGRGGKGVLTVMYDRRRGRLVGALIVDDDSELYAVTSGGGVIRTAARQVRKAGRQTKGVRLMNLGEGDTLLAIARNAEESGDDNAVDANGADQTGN

[9] = molecular target: T1, DNA gyrase subunit A/DNA gyrase subunit B; assay: Inhibition of Mycobacterium tuberculosis DNA gyrase ATPase activity; format: protein-complex assay
Homo sapiens = organism: Homo sapiens; assay: Inhibition of human topoisomerase-2-mediated decatenation at 100 uM relative to control
Enterococcus faecalis [10] = assay: Antibacterial activity against Enterococcus faecalis ATCC 29212 by agar dilution method; format: functional
[11] = test system: Mycobacterium tuberculosis; assay: Antibacterial activity against Mycobacterium tuberculosis H37Rv measured after 5 days by resazurin-dye based microplate assay; format: functional; conditions: 120 h
Pseudomonas aeruginosa [12] = assay: Antibacterial activity against Pseudomonas aeruginosa ATCC 27853 by agar dilution method; format: functional
Haemophilus influenzae [13] = assay: Antibacterial activity against Haemophilus influenzae ATCC 49247 by agar dilution method; format: functional
Streptococcus pneumoniae [14] = assay: Antibacterial activity against Streptococcus pneumoniae ATCC 49619 by agar dilution method; format: functional
[15] = test system: Staphylococcus epidermidis; assay: Antibacterial activity against Staphylococcus epidermidis ATCC 12228 by agar dilution method; format: functional

Compound | MIC (Enterococcus faecalis [1]) [µg/mL] | MIC (Staphylococcus aureus) [µg/mL] | MIC (Escherichia coli) [µg/mL] | MIC [2] [µg/mL] | MIC [3] [µg/mL] | other results
CNc1cc(F)cc2c1[nH]c1nc(CNC(=O)c3ocnc3C)nc(N3CCC(NC)C3)c12 (centres undefined) | 0.25 (≈ 0.552 µM) | 4 (≈ 8.84 µM) | 4 (≈ 8.84 µM) | 0.06 (≈ 0.133 µM) | 0.03 (≈ 0.0663 µM) | –
CNc1cc(F)cc2c1[nH]c1nc(CNC(=O)c3cnco3)nc(N3CCC(NC)C3)c12 (centres undefined) | 0.5 (≈ 1.14 µM) | 8 (≈ 18.2 µM) | 4 (≈ 9.12 µM) | 0.5 (≈ 1.14 µM) | 0.03 (≈ 0.0684 µM) | MIC (Acinetobacter baumannii): > 64 µg/mL; MIC (Pseudomonas aeruginosa [4]): > 64 µg/mL; MIC (Haemophilus influenzae [5]): 4 µg/mL (≈ 9.12 µM); MIC (Streptococcus pneumoniae [6]): 2 µg/mL (≈ 4.56 µM); MIC [7]: 2 µg/mL (≈ 4.56 µM); IC50 (HepG2): > 32 µg/mL
CO[C@H]1/C=C/O[C@@]2(C)Oc3c(C)c(O)c4c(O)c(c(/C=N/N5CCN(C)CC5)c(O)c4c3C2=O)NC(=O)/C(C)=C\C=C\[C@H](C)[C@H](O)[C@@H](C)[C@@H](O)[C@@H](C)[C@H](OC(C)=O)[C@@H]1C [RIFAMPIN] | – | – | – | 16 (≈ 19.4 µM) | – | –
CNc1cc(F)cc2c1[nH]c1nc(CNC(=O)c3ccc4cc[nH]c4n3)nc(N3CCC(N(C)C)C3)c12 (centres undefined) | 0.5 (≈ 0.997 µM) | 1 (≈ 1.99 µM) | 4 (≈ 7.97 µM) | 0.25 (≈ 0.498 µM) | 0.25 (≈ 0.498 µM) | –
CNc1cc(F)cc2c1[nH]c1nc(CNC(=O)c3cnco3)nc(N3CCC(N)C3)c12 (centres undefined) | 1 (≈ 2.36 µM) | 8 (≈ 18.8 µM) | 4 (≈ 9.42 µM) | 0.25 (≈ 0.589 µM) | 0.25 (≈ 0.589 µM) | MIC (Acinetobacter baumannii): 8 µg/mL (≈ 18.8 µM); MIC (Pseudomonas aeruginosa [4]): 32 µg/mL (≈ 75.4 µM); MIC (Haemophilus influenzae [5]): 1 µg/mL (≈ 2.36 µM); MIC (Streptococcus pneumoniae [6]): 1 µg/mL (≈ 2.36 µM); MIC [7]: 1 µg/mL (≈ 2.36 µM); IC50 (HepG2): > 16 µg/mL; IC50 [8]: 10 nM; IC50 [9]: 59 nM; inhibition (Homo sapiens): 21.2%
COc1c(N2C[C@@H]3CCCN[C@@H]3C2)c(F)cc2c(=O)c(C(=O)O)cn(C3CC3)c12 [MOXIFLOXACIN] | – | – | – | 0.03 (≈ 0.0747 µM) | – | –
CNc1cc(F)cc2c1[nH]c1nc(CNC(=O)c3cnco3)nc(N3CCC(CN)C3)c12 (centres undefined) | 0.12 (≈ 0.274 µM) | 4 (≈ 9.12 µM) | 4 (≈ 9.12 µM) | 0.06 (≈ 0.137 µM) | 0.03 (≈ 0.0684 µM) | –
CNc1cc(F)cc2c1[nH]c1nc(CNC(=O)c3ccco3)nc(N3CCC(N(C)C)C3)c12 (centres undefined) | 0.12 (≈ 0.266 µM) | 0.25 (≈ 0.554 µM) | 0.5 (≈ 1.11 µM) | 0.06 (≈ 0.133 µM) | 0.03 (≈ 0.0664 µM) | –
CNc1cc(F)cc2c1[nH]c1nc(CNC(=O)c3cnc(C)o3)nc(N3CCC(N(C)C)C3)c12 (centres undefined) | 0.015 (≈ 0.0322 µM) | 1 (≈ 2.14 µM) | 1 (≈ 2.14 µM) | 0.002 (≈ 0.00429 µM) | – | –
CNc1cc(F)cc2c1[nH]c1nc(CNC(=O)c3cocn3)nc(N3CCC(N)C3)c12 (centres undefined) | 0.06 (≈ 0.141 µM) | 8 (≈ 18.8 µM) | 128 (≈ 302 µM) | 0.12 (≈ 0.283 µM) | – | MIC (Acinetobacter baumannii): 16 µg/mL (≈ 37.7 µM); MIC (Pseudomonas aeruginosa [4]): 128 µg/mL (≈ 302 µM); MIC (Haemophilus influenzae [5]): 1 µg/mL (≈ 2.36 µM); MIC (Streptococcus pneumoniae [6]): 0.12 µg/mL (≈ 0.283 µM); MIC [7]: 1 µg/mL (≈ 2.36 µM); IC50 (HepG2): 10.8 µg/mL (≈ 25.5 µM); IC50 [8]: 5 nM; IC50 [9]: 25 nM; inhibition (Homo sapiens): 5.8%
CNc1cc(F)cc2c1[nH]c1nc(CNC(=O)c3ocnc3C)nc(N3CCC(N(C)C)C3)c12 (centres undefined) | 0.03 (≈ 0.0643 µM) | 1 (≈ 2.14 µM) | 2 (≈ 4.29 µM) | 0.06 (≈ 0.129 µM) | 0.06 (≈ 0.129 µM) | –
CNc1cc(F)cc2c1[nH]c1nc(CN)nc(N3CCC(N)C3)c12 (centres undefined) | 8 (≈ 24.3 µM) | 8 (≈ 24.3 µM) | 8 (≈ 24.3 µM) | – | – | –
CNc1cc(F)cc2c1[nH]c1nc(CNC(=O)c3cocn3)nc(N3CCC(NC)C3)c12 (centres undefined) | 0.25 (≈ 0.57 µM) | 16 (≈ 36.5 µM) | 16 (≈ 36.5 µM) | 0.5 (≈ 1.14 µM) | 0.12 (≈ 0.274 µM) | –
CNc1cc(F)cc2c1[nH]c1nc(CNC(=O)c3cccnc3)nc(N3CCC(N)C3)c12 (centres undefined) | 0.25 (≈ 0.575 µM) | 32 (≈ 73.7 µM) | 8 (≈ 18.4 µM) | – | – | –
CNc1cc(F)cc2c1[nH]c1nc(CNC(=O)c3cnc(C)o3)nc(N3CCC(CN)C3)c12 (centres undefined) | 0.25 (≈ 0.552 µM) | 8 (≈ 17.7 µM) | 4 (≈ 8.84 µM) | 0.12 (≈ 0.265 µM) | 0.015 (≈ 0.0331 µM) | –
CO[C@@H]1[C@@H](OC(N)=O)[C@@H](O)[C@H](Oc2ccc3c(O)c(NC(=O)c4ccc(O)c(CC=C(C)C)c4)c(=O)oc3c2C)OC1(C)C [NOVOBIOCIN] | – | 0.06 (≈ 0.0979 µM) | > 64 | 1 (≈ 1.63 µM) | – | MIC (Enterococcus faecalis [10]): 4 µg/mL (≈ 6.53 µM); MIC [11]: 4 µg/mL (≈ 6.53 µM); MIC (Pseudomonas aeruginosa [12]): > 64 µg/mL; MIC (Haemophilus influenzae [13]): 0.5 µg/mL (≈ 0.816 µM); MIC (Streptococcus pneumoniae [14]): 0.5 µg/mL (≈ 0.816 µM); MIC [15]: 0.06 µg/mL (≈ 0.0979 µM); IC50 (HepG2): > 32 µg/mL
CNc1cc(F)cc2c1[nH]c1nc(CNC(=O)c3cccc(C(=O)OC)n3)nc(N3CCC(CN)C3)c12 (centres undefined) | 1 (≈ 1.97 µM) | 8 (≈ 15.8 µM) | 32 (≈ 63.2 µM) | 0.06 (≈ 0.118 µM) | – | –
CNc1cc(F)cc2c1[nH]c1nc(CNC(=O)c3cccnn3)nc(N3CCC(N)C3)c12 (centres undefined) | 0.12 (≈ 0.276 µM) | 8 (≈ 18.4 µM) | 4 (≈ 9.19 µM) | – | – | –
NNC(=O)c1ccncc1 [ISONIAZID] | – | – | – | 4 (≈ 29.2 µM) | – | –
CNc1cc(F)cc2c1[nH]c1nc(CNC(=O)c3ocnc3C)nc(N3CCC(CN)C3)c12 (centres undefined) | 0.5 (≈ 1.1 µM) | 8 (≈ 17.7 µM) | 8 (≈ 17.7 µM) | 0.03 (≈ 0.0663 µM) | 0.015 (≈ 0.0331 µM) | –
CNc1cc(F)cc2c1[nH]c1nc(CNC(=O)c3cnco3)nc(N3CCC(N(C)C)C3)c12 (centres undefined) | 0.015 (≈ 0.0331 µM) | 0.5 (≈ 1.1 µM) | 0.25 (≈ 0.552 µM) | 0.06 (≈ 0.133 µM) | 0.06 (≈ 0.133 µM) | MIC (Acinetobacter baumannii): 1 µg/mL (≈ 2.21 µM); MIC (Pseudomonas aeruginosa [4]): > 64 µg/mL; MIC (Haemophilus influenzae [5]): 4 µg/mL (≈ 8.84 µM); MIC (Streptococcus pneumoniae [6]): 0.12 µg/mL (≈ 0.265 µM); MIC [7]: 0.12 µg/mL (≈ 0.265 µM); IC50 (HepG2): > 16 µg/mL
